Measured values as given in patent US20080227638A1, “Use of abscisic acid to enhance growth control” (priority 2007, published 2008).

Key:
Type in all cases: in vivo
Kentucky bluegrass = experiment: Greenhouse Kentucky bluegrass height and quality, ABA and trinexapac-ethyl (Example 1); settings: 200 ppm ABA
Experimental: Greenhouse studies were conducted at the Research Farm of Valent BioSciences Corporation (Long Grove, Ill.). Grasses were grown in pots (18 cm in diameter and 18 cm in height) filled with Promix BX (available from Premier Horticulture Inc. Quakertown, Pa.). Grass was irrigated daily by an overhead irrigation system. The irrigation system was set up with multiple Tornado Mist Spray Heads (10 GPH at 40 PSI-Wetted diameter, NDS/Raindrip, Woodland Hills, Calif.). Spray heads were 1-meter apart from each other and 75 cm above grass canopy. Grass was cut with a scissor at 2.5 cm height and fertilizer (1 g/L all purpose fertilizer 20-20-20, available from The Scotts Company, Marysville, Ohio) was applied once per week.
(§1) Chemical solutions were prepared with distilled water. Tween 20 (0.05% v/v) was used as an, adjuvant. Both trinexapac-ethyl (commercial product Primo Maxx, 11.3% active ingredient) and paclobutrazol (commercial product Trimmit 2SC, 22.3% active ingredient) were purchased from Syngenta Crop Protection Inc. (Greensboro, N.C.). Uniconazole-P (commercial product Sumagic, 0.55% active ingredient) was obtained from Valent U.S.A. Corporation (Walnut Creek, Calif.).
(§2) When treated with paclobutrazol or uniconazole-P, turfgrass received irrigation within 24 hours after application to flush chemicals to the root zone. After treatment, turfgrasses were arranged in a randomized complete block experimental design. Turfgrass quality, turfgrass height or clip fresh weight was measured on assigned dates. Turfgrass quality was visually rated on a 0-9 scale based on the color, uniformity and density of the grass with 0 as the worst and 9 as the best. Turfgrass height was measured as the distance between canopy surface and soil. Clips were collected from each plot; all plots were cut to a uniform height.
(§3) All experiments were randomized complete block experimental design. Data were analyzed by analysis of variance. Duncan's new multiple range tests at α=0.05 were used for mean separations.
Kentucky bluegrass sod (unknown variety) was purchased from Deak sod farms, Inc. (Union Grove, Wis.). Grass was grown in the greenhouse in pots (n=6 pots per treatment) for establishment before treatment. […] Tween 20 (0.05% w/v) was included as an adjuvant. Turfgrass canopy was not cut during the experimental period.

creeping bentgrass = experiment: Golf course green creeping bentgrass height, ABA and trinexapac-ethyl (Example 4); settings: 200 ppm ABA
Experimental: (§4) Field studies were conducted at the nursery green or the practice green at Countryside golf course (Mundelein, Ill.). Both greens were sand based and growing Penncross creeping bentgrass. Grass was managed with typical Illinois golf course management practices.
as §1, §2, §3
(§5) Tween 20 (0.05% w/v) was included as an adjuvant.

[1] = tested on: tomato (variety: Rutgers); experiment: Tomato plant height, growth rate and leaf number (Example 9); settings: for Leaf number: 15 days after treatment
Excerpt: (§6) Tomato (variety: Rutgers) seeds were sown in 18-cell flat filled with Promix PGX (available from Premier Horticulture Inc. Quakertown, Pa.) and grown for 3 weeks to allow for germination and initial growth. Plants were then transplanted into pots (18 cm in diameter and 18 cm in height), filled with Promix BX (available from Premier Horticulture Inc. Quakertown, Pa.), and grown for one week before the chemical treatment. Plants received daily irrigation and weekly fertilizer (1 g/L all purpose fertilizer 20-20-20, available from The Scotts Company, Marysville, Ohio).
(§7) During the chemical treatment, a 15 mL (2.5 mL/plant) solution was foliar sprayed on the tomato canopy. Leaf transpiration rates were measured using a LI-1600 Steady State Porometer (LI-Cor, Lincoln, Nebr.) at 1, 2, 3, 4, 7, 10 and 15 days after treatment. Leaf transpiration rate was normalized to the percentage of control plant to minimize the experimental errors caused by environmental factors. Plant height was measured at 0, 2, 4, 7, 10 and 15 days after treatment. Growth rate was calculated based on the changes of plant height in certain intervals. The plants were harvested and the leaf number was counted at 15 days after treatment.

creeping bentgrass green = experiment: Soil moisture of creeping bentgrass green, ABA and trinexapac-ethyl (Example 8); settings: 500 ppm ABA
Experimental: as §4, §1, §2, §3, §5

[2] = tested on: tomato (variety: Rutgers); experiment: Tomato leaf transpiration, porometer (Example 9)
Excerpt: as §6, §7

[3] = 250 ppm ABA, day 2 after treatment
[4] = 250 ppm ABA, day 4 after treatment
[5] = 250 ppm ABA, day 7 after treatment
[6] = 250 ppm ABA, day 10 after treatment
[7] = 250 ppm ABA, day 15 after treatment
[8] = 500 ppm ABA, day 2 after treatment
[9] = 500 ppm ABA, day 4 after treatment
[10] = 500 ppm ABA, day 7 after treatment
[11] = 500 ppm ABA, day 10 after treatment
[12] = 500 ppm ABA, day 15 after treatment
[13] = 1000 ppm ABA, day 2 after treatment
[14] = 1000 ppm ABA, day 4 after treatment
[15] = 1000 ppm ABA, day 7 after treatment
[16] = 1000 ppm ABA, day 10 after treatment
[17] = 1000 ppm ABA, day 15 after treatment
[18] = 2000 ppm ABA, day 2 after treatment
[19] = 2000 ppm ABA, day 4 after treatment
[20] = 2000 ppm ABA, day 7 after treatment
[21] = 2000 ppm ABA, day 10 after treatment
[22] = 2000 ppm ABA, day 15 after treatment

S-abscisic acid [ABA] was tested. Which Turfgrass height (Kentucky bluegrass; 7 days after treatment) did it give?
The Turfgrass height was 9.4 cm.

What about the Turfgrass height (Kentucky bluegrass; 23 days after treatment) of the same substance?
Its Turfgrass height is 19.0 cm.

What about the Turfgrass height (creeping bentgrass; 7 days after treatment) of the same substance?
Its Turfgrass height is 5.3 cm.

And the Turfgrass height (creeping bentgrass; 14 days after treatment)?
Its Turfgrass height is 8.2 cm.

What about the Leaf number ([1]; 250 ppm ABA) of the same substance?
Its Leaf number is 12.2.

What about the Plant height ([1]; 250 ppm ABA, day 0 after treatment) of the same substance?
The Plant height was 9.9 cm.

And the Growth rate [1, 3]?
The Growth rate was 1.5 cm/day.

What about the Plant height [1, 3] of the same substance?
The Plant height was 12.8 cm.

What about the Growth rate [1, 4] of the same substance?
Its Growth rate is 1.6 cm/day.

What about the Plant height [1, 4] of the same substance?
Its Plant height is 16.3 cm.

And the Growth rate [1, 5]?
The Growth rate was 2.7 cm/day.

And the Plant height [1, 5]?
The Plant height was 28.5 cm.

What about the Growth rate [1, 6] of the same substance?
Its Growth rate is 2.1 cm/day.

What about the Plant height [1, 6] of the same substance?
Its Plant height is 30.4 cm.

What about the Growth rate [1, 7] of the same substance?
Its Growth rate is 2.3 cm/day.

What about the Plant height [1, 7] of the same substance?
Its Plant height is 45.5 cm.

What about the Leaf number ([1]; 500 ppm ABA) of the same substance?
The Leaf number was 12.0.

What about the Plant height ([1]; 500 ppm ABA, day 0 after treatment) of the same substance?
The Plant height was 10.1 cm.

And the Growth rate [1, 8]?
The Growth rate was 1.3 cm/day.

What about the Plant height [1, 8] of the same substance?
Its Plant height is 12.5 cm.

What about the Growth rate [1, 9] of the same substance?
Its Growth rate is 1.6 cm/day.

And the Plant height [1, 9]?
Its Plant height is 16.3 cm.

What about the Growth rate [1, 10] of the same substance?
Its Growth rate is 2.4 cm/day.

And the Plant height [1, 10]?
Its Plant height is 27.0 cm.

What about the Growth rate [1, 11] of the same substance?
The Growth rate was 2.0 cm/day.

What about the Plant height [1, 11] of the same substance?
The Plant height was 29.6 cm.

What about the Growth rate [1, 12] of the same substance?
Its Growth rate is 2.3 cm/day.

And the Plant height [1, 12]?
Its Plant height is 44.1 cm.

What about the Leaf number ([1]; 1000 ppm ABA) of the same substance?
Its Leaf number is 12.0.

What about the Plant height ([1]; 1000 ppm ABA, day 0 after treatment) of the same substance?
Its Plant height is 9.8 cm.

And the Growth rate [1, 13]?
Its Growth rate is 1.0 cm/day.

What about the Plant height [1, 13] of the same substance?
The Plant height was 11.7 cm.

What about the Growth rate [1, 14] of the same substance?
Its Growth rate is 1.2 cm/day.

What about the Plant height [1, 14] of the same substance?
Its Plant height is 14.5 cm.

What about the Growth rate [1, 15] of the same substance?
Its Growth rate is 2.2 cm/day.

What about the Plant height [1, 15] of the same substance?
Its Plant height is 25.3 cm.

What about the Growth rate [1, 16] of the same substance?
Its Growth rate is 1.8 cm/day.

What about the Plant height [1, 16] of the same substance?
The Plant height was 27.4 cm.

And the Growth rate [1, 17]?
Its Growth rate is 2.0 cm/day.

And the Plant height [1, 17]?
Its Plant height is 41.6 cm.

What about the Leaf number ([1]; 2000 ppm ABA) of the same substance?
The Leaf number was 12.0.

What about the Plant height ([1]; 2000 ppm ABA, day 0 after treatment) of the same substance?
Its Plant height is 9.8 cm.

And the Growth rate [1, 18]?
Its Growth rate is 0.9 cm/day.

What about the Plant height [1, 18] of the same substance?
Its Plant height is 11.5 cm.

And the Growth rate [1, 19]?
Its Growth rate is 1.3 cm/day.

What about the Plant height [1, 19] of the same substance?
Its Plant height is 14.9 cm.

What about the Growth rate [1, 20] of the same substance?
The Growth rate was 1.9 cm/day.

And the Plant height [1, 20]?
The Plant height was 23.2 cm.

What about the Growth rate [1, 21] of the same substance?
Its Growth rate is 1.6 cm/day.

And the Plant height [1, 21]?
The Plant height was 25.8 cm.

What about the Growth rate [1, 22] of the same substance?
The Growth rate was 1.9 cm/day.

And the Plant height [1, 22]?
Its Plant height is 40.5 cm.

And the Soil moisture (creeping bentgrass green; 2 days after treatment)?
Its Soil moisture is 11.4%.

And the Soil moisture (creeping bentgrass green; 7 days after treatment)?
The Soil moisture was 10.9%.

And the Transpiration ([2]; 250 ppm ABA, day 1 after treatment)?
Its Transpiration is 87 % of control.

What about the Transpiration [2, 3] of the same substance?
The Transpiration was 86 % of control.

What about the Transpiration ([2]; 250 ppm ABA, day 3 after treatment) of the same substance?
The Transpiration was 91 % of control.

What about the Transpiration [2, 4] of the same substance?
Its Transpiration is 95 % of control.

And the Transpiration [2, 5]?
The Transpiration was 99 % of control.

And the Transpiration [2, 6]?
The Transpiration was 98 % of control.

And the Transpiration [2, 7]?
The Transpiration was 99 % of control.

What about the Transpiration ([2]; 500 ppm ABA, day 1 after treatment) of the same substance?
The Transpiration was 78 % of control.

What about the Transpiration [2, 8] of the same substance?
The Transpiration was 78 % of control.

And the Transpiration ([2]; 500 ppm ABA, day 3 after treatment)?
The Transpiration was 84 % of control.

What about the Transpiration [2, 9] of the same substance?
The Transpiration was 88 % of control.

What about the Transpiration [2, 10] of the same substance?
Its Transpiration is 98 % of control.

What about the Transpiration [2, 11] of the same substance?
Its Transpiration is 99 % of control.

What about the Transpiration [2, 12] of the same substance?
Its Transpiration is 99 % of control.

What about the Transpiration ([2]; 1000 ppm ABA, day 1 after treatment) of the same substance?
The Transpiration was 60 % of control.

What about the Transpiration [2, 13] of the same substance?
The Transpiration was 73 % of control.

And the Transpiration ([2]; 1000 ppm ABA, day 3 after treatment)?
The Transpiration was 76 % of control.

And the Transpiration [2, 14]?
The Transpiration was 84 % of control.

What about the Transpiration [2, 15] of the same substance?
The Transpiration was 93 % of control.

What about the Transpiration [2, 16] of the same substance?
The Transpiration was 99 % of control.

And the Transpiration [2, 17]?
The Transpiration was 97 % of control.

What about the Transpiration ([2]; 2000 ppm ABA, day 1 after treatment) of the same substance?
The Transpiration was 46 % of control.

And the Transpiration [2, 18]?
Its Transpiration is 58 % of control.

What about the Transpiration ([2]; 2000 ppm ABA, day 3 after treatment) of the same substance?
Its Transpiration is 70 % of control.

And the Transpiration [2, 19]?
The Transpiration was 76 % of control.

And the Transpiration [2, 20]?
Its Transpiration is 85 % of control.

And the Transpiration [2, 21]?
The Transpiration was 95 % of control.

What about the Transpiration [2, 22] of the same substance?
The Transpiration was 100 % of control.
